Molecular target: T1, E. coli gyrase holoenzyme (GyrA and GyrB) (Escherichia coli, UniProt P0AES4+P0AES6)
T1 construct: His-tagged GyrA and GyrB expressed separately in E. coli BL21-CodonPlus(DE3)-RIL, tags cleaved with TEV protease, Ni-NTA and S200 purified; used as holoenzyme
Test: supercoiling, fluorescent cruciform extrusion, NCC screen
Assay type: biochemical
Excerpt: supercoiling, fluorescent cruciform extrusion, NCC screen on E. coli gyrase holoenzyme (GyrA and GyrB)

T1 sequence (P0AES4 whole entry, one chain of several): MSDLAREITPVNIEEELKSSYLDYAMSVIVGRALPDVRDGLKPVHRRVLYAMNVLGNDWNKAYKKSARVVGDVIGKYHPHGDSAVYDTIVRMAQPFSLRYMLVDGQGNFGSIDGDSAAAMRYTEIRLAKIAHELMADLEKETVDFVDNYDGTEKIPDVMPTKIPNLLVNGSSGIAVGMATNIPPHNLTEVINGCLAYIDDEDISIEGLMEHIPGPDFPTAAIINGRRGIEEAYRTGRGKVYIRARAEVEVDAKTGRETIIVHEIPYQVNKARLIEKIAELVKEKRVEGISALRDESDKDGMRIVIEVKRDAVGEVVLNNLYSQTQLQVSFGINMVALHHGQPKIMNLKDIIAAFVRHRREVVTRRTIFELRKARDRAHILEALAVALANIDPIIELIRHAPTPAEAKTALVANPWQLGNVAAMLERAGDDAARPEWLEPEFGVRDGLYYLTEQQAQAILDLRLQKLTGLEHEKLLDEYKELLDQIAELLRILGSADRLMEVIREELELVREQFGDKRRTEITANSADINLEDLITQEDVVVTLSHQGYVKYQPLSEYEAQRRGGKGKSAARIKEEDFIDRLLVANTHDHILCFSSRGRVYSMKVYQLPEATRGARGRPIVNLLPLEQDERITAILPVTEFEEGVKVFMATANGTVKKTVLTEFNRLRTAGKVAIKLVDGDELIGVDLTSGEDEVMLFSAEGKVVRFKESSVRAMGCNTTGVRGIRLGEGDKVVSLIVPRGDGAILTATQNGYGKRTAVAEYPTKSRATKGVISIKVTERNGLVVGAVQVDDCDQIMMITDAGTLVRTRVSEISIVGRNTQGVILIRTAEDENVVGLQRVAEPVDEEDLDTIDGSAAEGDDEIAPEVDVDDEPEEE

SMILES	inhibition at 50 µM [%]
CN1CCN(c2c(F)cc3c(=O)c(C(=O)O)cn4c3c2SCC4)CC1 [Rufloxacin]	89
CCn1cc(C(=O)O)c(=O)c2cc(F)c(N3CCN(C)CC3)cc21 [Pefloxacin]	95
NC1CCN(c2nc3c(cc2F)c(=O)c(C(=O)O)cn3-c2ccc(F)cc2F)C1 (stereo not shown) [Tosufloxacin]	96
CCN1CCN(c2cc3c(cc2F)c(=O)c(C(=O)O)cn3C2CC2)CC1 [Enrofloxacin]	67

From publication PMC3711437, “Real-time detection of DNA topological changes with a fluorescently labeled cruciform” (Nucleic Acids Research, 2013)
